Measured values from patent US12071411B2, “Inhibitors of HIF-2α and methods of use thereof” (ARCUS BIOSCIENCES, INC., priority 2021, dated 2024).

Experiments:
[1] = biological target: T1, Biotin tagged HIF-2α protein containing PAS-B domain (240-350) (Homo sapiens, UniProt Q99814); assay: HIF-2α Scintillation Proximity Assay (SPA) binding assay; conditions: 50 nM HIF-2α protein, 25 nM 3H-tracer, 2% DMSO
T1 construct: Biotin tagged HIF-2α protein containing PAS-B domain (240-350) was prepared and purified in-house; made in house
T1 sequence (Q99814 240-350): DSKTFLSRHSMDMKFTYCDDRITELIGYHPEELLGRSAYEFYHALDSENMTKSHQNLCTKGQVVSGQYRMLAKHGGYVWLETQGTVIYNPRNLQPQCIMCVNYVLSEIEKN
Protocol: HIF-2α Scintillation Proximity Assay (SPA) Binding Assay:
Biotin tagged HIF-2α protein containing PAS-B domain (240-350) was prepared and purified in-house.
Compounds solubilized in DMSO were dispensed into a white 384-well polystyrene non-binding flat clear bottom plate (Greiner Bio-One, Cat #781903) using an HP D300 dispenser. Ten microliters of biotinylated HIF-2α protein in buffer (25 mM Tris-HCl, pH 7.4, 150 mM NaCl, 0.15% BSA and 0.001% Tween 20) was added to the compound wells and allowed to incubate for 1 hour at room temperature. Ten microliters of SPA bead mix were added to the wells and incubated for an additional 45 minutes, followed by 10 ul of ^3H-tracer solution. Final assay conditions comprised 50 nM HIF-2α protein, 25 nM radiolabeled tracer and 3 ug beads per well with compounds in 2% DMSO. The plate was read using a MicroBeta Microplate Counter (PerkinElmer) for luminescence detection. The IC50 values of the test compounds were determined from compound dose response curves fitted using a standard four parameter fit equation and are reported in Table 2.

HIF-2α [2] = biological target: T2, HIF-2α (Homo sapiens, UniProt Q99814); assay: HIF-2α Luciferase Reporter Assay (serum free) in HIF-Luc-786-0 cells; assay type: cell-based; conditions: Opti-MEM, 786-0 reporter cells, 20 hours incubation
T2 sequence (Q99814 whole entry): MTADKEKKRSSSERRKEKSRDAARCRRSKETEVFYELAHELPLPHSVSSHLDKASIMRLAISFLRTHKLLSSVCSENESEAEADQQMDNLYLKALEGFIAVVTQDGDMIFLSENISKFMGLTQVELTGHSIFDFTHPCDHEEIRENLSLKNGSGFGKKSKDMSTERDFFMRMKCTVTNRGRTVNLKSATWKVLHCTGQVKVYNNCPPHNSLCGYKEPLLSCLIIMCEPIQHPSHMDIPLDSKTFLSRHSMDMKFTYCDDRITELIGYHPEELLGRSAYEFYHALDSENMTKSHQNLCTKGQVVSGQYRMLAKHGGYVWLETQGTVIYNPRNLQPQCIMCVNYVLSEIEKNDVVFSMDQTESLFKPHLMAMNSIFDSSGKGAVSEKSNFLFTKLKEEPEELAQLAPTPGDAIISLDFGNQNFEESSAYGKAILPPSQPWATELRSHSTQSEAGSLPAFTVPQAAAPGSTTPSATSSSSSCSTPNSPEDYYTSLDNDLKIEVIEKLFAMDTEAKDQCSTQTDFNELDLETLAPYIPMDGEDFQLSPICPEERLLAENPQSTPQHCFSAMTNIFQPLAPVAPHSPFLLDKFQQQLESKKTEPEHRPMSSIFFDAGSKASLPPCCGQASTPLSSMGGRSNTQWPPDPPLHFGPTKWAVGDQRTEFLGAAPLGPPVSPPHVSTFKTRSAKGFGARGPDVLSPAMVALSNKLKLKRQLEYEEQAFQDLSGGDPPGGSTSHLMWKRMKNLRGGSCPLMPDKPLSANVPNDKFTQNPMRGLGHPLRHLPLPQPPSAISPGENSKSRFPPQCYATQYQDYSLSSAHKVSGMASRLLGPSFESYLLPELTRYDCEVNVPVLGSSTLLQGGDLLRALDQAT
Procedure, shortened: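 786-0 cells stably transduced with HIF luciferase reporter, 20,000 cells/well in serum-free Opti-MEM, compounds (50 uM downward, 1% DMSO) 20 h at 37 °C. ONE-Glo luminescence normalized to DMSO and no-cell controls; IC50 from four-parameter fit.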

HIF-2α [3] = biological target: T2, HIF-2α; assay: HIF-2α Luciferase Reporter Assay (serum), HRE-luciferase 786-0 cells in 100% human serum; assay type: cell-based; conditions: for IC50: 100% human serum, 786-0 reporter cells, overnight incubation, read-out: Serum Potency; for Serum Shift (approximate): ratio of IC50 in 100% serum to IC50 in serum free conditions
Procedure, shortened: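 786-0 cells stably expressing an HRE-luciferase reporter were plated and rested 3 h. They were then treated overnight at 37 °C with compound diluted in 100% human serum. Serum was replaced with Opti-MEM, ONE-Glo luminescence was read, and IC50 came from a 4-parameter logistic fit.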

| SMILES | IC50 [1] [nM] | IC50 (HIF-2α [2]) [nM] | IC50 (HIF-2α [3]) [nM] | Serum Shift (approximate) (HIF-2α [3]) |
| --- | --- | --- | --- | --- |
| CC(CCn1nc(C#N)c2c1CCC(F)(F)[C@H]2O)C(F)(F)F (stereo partly drawn) [Example 49, (4S)-5,5-difluoro-4-hydroxy-1-(4,4,4-trifluoro-3-methylbutyl)-6,7-dihydro-4H-indazole-3-carbonitrile] | 100 to 1000 | 100 to 1000 | > 1000 | 7 |
| O[C@H]1c2c(C(F)(F)F)nn(CCC3(F)COC3)c2CCC1(F)F [Example 21, (4S)-5,5-difluoro-1-[2-(3-fluorooxetan-3-yl)ethyl]-3-(trifluoromethyl)-4,5,6,7-tetrahydro-1H-indazol-4-ol] | 100 to 1000 | 100 to 1000 | > 1000 | 3 |
| O[C@H]1c2c(C(F)(F)F)nn(CCC(F)(F)F)c2CCC1(F)F [Example 33, (4S)-5,5-difluoro-3-(trifluoromethyl)-1-(3,3,3-trifluoropropyl)-6,7-dihydro-4H-indazol-4-ol] | 100 to 1000 | 100 to 1000 | > 1000 | 9 |
| O[C@H]1c2c(C(F)(F)F)nn(CC3CC3(F)F)c2CCC1(F)F (single isomer, unassigned) [23/24 DIAST-1] | 100 to 1000 | 100 to 1000 | > 1000 | 6 |
| CC(CCn1nc(C(F)(F)F)c2c1CCC(F)(F)[C@H]2O)C(F)(F)F (stereo partly drawn) [Example 38, (4S)-5,5-difluoro-3-(trifluoromethyl)-1-(4,4,4-trifluoro-3-methylbutyl)-6,7-dihydro-4H-indazol-4-ol] | < 100 | 100 to 1000 | 100 to 1000 | 8 |
| O[C@H]1c2c(C(F)(F)F)nn(CCC3CC(F)(F)C3)c2CCC1(F)F [Example 44, (4S)-1-[2-(3,3-difluorocyclobutyl)ethyl]-5,5-difluoro-3-(trifluoromethyl)-6,7-dihydro-4H-indazol-4-ol] | 100 to 1000 | 100 to 1000 | > 1000 | 6 |
| O[C@H]1c2c(C(F)(F)F)nn(CC3CC3(F)F)c2CCC1(F)F (single isomer, unassigned) [23/24 DIAST-2] | 100 to 1000 | 100 to 1000 | > 1000 | 10 |
| OC(CCn1nc(C(F)(F)F)c2c1CCC(F)(F)[C@H]2O)C(F)(F)F (stereo partly drawn) [Example 16, (4S)-5,5-difluoro-1-(4,4,4-trifluoro-3-hydroxybutyl)-3-(trifluoromethyl)-6,7-dihydro-4H-indazol-4-ol] | 100 to 1000 | 100 to 1000 | > 1000 | 22 |
| O[C@H]1c2c(C(F)(F)F)nn(CCC3(C(F)(F)F)CC3)c2CCC1(F)F [Example 5, (4S)-5,5-difluoro-3-(trifluoromethyl)-1-[2-[1-(trifluoromethyl)cyclopropyl]ethyl]-6,7-dihydro-4H-indazol-4-ol] | 100 to 1000 | 100 to 1000 | > 1000 | 18 |
| CC(C)CCn1nc(C(F)(F)F)c2c1CCC(F)(F)[C@H]2O [Example 40, (4S)-5,5-difluoro-1-(3-methylbutyl)-3-(trifluoromethyl)-6,7-dihydro-4H-indazol-4-ol] | 100 to 1000 | 100 to 1000 | > 1000 | 31 |
| O[C@H]1c2c(C(F)(F)F)nn(CCC3CC3)c2CCC1(F)F [Example 22, (4S)-1-(2-cyclopropylethyl)-5,5-difluoro-3-(trifluoromethyl)-4,5,6,7-tetrahydro-1H-indazol-4-ol] | 100 to 1000 | 100 to 1000 | > 1000 | 10 |
| CO[C@H]1c2c(C(F)(F)F)nn(CCCC(F)(F)F)c2CCC1(F)F [Example 47, (4S)-5,5-difluoro-4-methoxy-1-(4,4,4-trifluorobutyl)-3-(trifluoromethyl)-6,7-dihydro-4H-indazole] | > 1000 | > 1000 | – | – |
| CC(CCn1nc(S(C)(=O)=O)c2c1CCC(F)(F)[C@H]2O)C(F)(F)F (stereo partly drawn) [Example 50, (4S)-5,5-difluoro-3-methylsulfonyl-1-(4,4,4-trifluoro-3-methylbutyl)-6,7-dihydro-4H-indazol-4-ol] | > 1000 | > 1000 | – | – |
| O[C@H]1c2c(C(F)(F)F)nn(CC3CC3)c2CCC1(F)F [Example 10, (4S)-1-(cyclopropylmethyl)-5,5-difluoro-3-(trifluoromethyl)-6,7-dihydro-4H-indazol-4-ol] | > 1000 | > 1000 | – | – |
| O[C@H]1c2c(C(F)(F)F)nn(CCC3CC3(F)F)c2CC1(F)F (stereo partly drawn) [Example 58, (4S)-1-[2-(2,2-difluorocyclopropyl)ethyl]-5,5-difluoro-3-(trifluoromethyl)-4,6-dihydrocyclopenta[c]pyrazol-4-ol] | < 100 | < 100 | 100 to 1000 | 3 |
| O[C@H]1c2c(C(F)(F)F)nn(CCOC(F)(F)F)c2CCC1(F)F [Example 60, (4S)-5,5-difluoro-1-[2-(trifluoromethoxy)ethyl]-3-(trifluoromethyl)-6,7-dihydro-4H-indazol-4-ol] | > 1000 | > 1000 | > 1000 | 3 |
| CCCCn1nc(C(F)(F)F)c2c1CCC(F)(F)[C@H]2O [Example 39, (4S)-1-butyl-5,5-difluoro-3-(trifluoromethyl)-6,7-dihydro-4H-indazol-4-ol] | 100 to 1000 | 100 to 1000 | > 1000 | >39 |
| CC(C)(C#N)CCn1nc(C(F)(F)F)c2c1CCC(F)(F)[C@H]2O [Example 1, 4-[(4S)-5,5-Difluoro-4-hydroxy-3-(trifluoromethyl)-6,7-dihydro-4H-indazol-1-yl]-2,2-dimethylbutanenitrile] | 100 to 1000 | > 1000 | > 1000 | 2 |
| CC(C#N)CCn1nc(C(F)(F)F)c2c1CCC(F)(F)[C@H]2O (stereo partly drawn) [Example 3, 4-[(4S)-5,5-difluoro-4-hydroxy-3-(trifluoromethyl)-6,7-dihydro-4H-indazol-1-yl]-2-methylbutanenitrile] | 100 to 1000 | 100 to 1000 | 100 to 1000 | 1 |
| O[C@H]1c2c(C(F)(F)F)nn(CCCC(F)F)c2CCC1(F)F [Example 31, (4S)-1-(4,4-difluorobutyl)-5,5-difluoro-3-(trifluoromethyl)-6,7-dihydro-4H-indazol-4-ol] | 100 to 1000 | 100 to 1000 | > 1000 | 7 |
| O[C@H]1c2c(C(F)(F)F)nn(CCSC(F)(F)F)c2CCC1(F)F [Example 7, (4S)-5,5-difluoro-3-(trifluoromethyl)-1-[2-(trifluoromethylsulfanyl)ethyl]-6,7-dihydro-4H-indazol-4-ol] | < 100 | < 100 | 100 to 1000 | 5 |
| COCCCn1nc(C(F)(F)F)c2c1CCC(F)(F)[C@H]2O [Example 9, (4S)-5,5-difluoro-1-(3-methoxypropyl)-3-(trifluoromethyl)-6,7-dihydro-4H-indazol-4-ol] | > 1000 | > 1000 | – | – |
